Measured values: patent EP0293500A1, “3-heteroalkyl-2,4.quinzaoline-diones” (AMERICAN CYANAMID COMPANY, priority 1987, dated 1988)
Where a name gives a salt, the structure may show the parent alone.

The compounds below were run on spontaneously hypertensive rats of the Okamoto strain (assay: Hypotensive activity in spontaneously hypertensive rats (method of Chan and Poorvin)). Details: male SHR, average MABP 160±1.5 mm of mercury; gavage, 100 mg/kg or less, second identical dose 24 hours later; MABP at 28 hours after the initial dose; number of rats in brackets.
Type: in vivo
Method: The novel compounds of the present invention are also active hypotensive agents and were tested for hypotensive activity by the method of P. S. Chan and b. Poorvin, Clinical and Experimental Hypertension, 1 (6), 817-830 (1979). Male, 16 week old, spontaneously hypertensive rats of the Okamoto strain, from Taconic Farms, Germantown, New York having an average mean arterial blood pressure of 160±1.5 mm of mercury were used in the test. […] A second identical dose of the test compound, without sodium chloride loading is given 24 hours later. At 28 hours after the initial dose, the mean arterial blood pressure (MABP) is measured by the method of Chan and Poorvin vide supra. The procedure is repeated in a second and third rat when necessary. The results of this test on representative compounds of the present invention appear in Table II below.

Q: `CC(CCn1cnc2ccccc2c1=O)n1ccnc1.O=C(O)/C=C/C(=O)O` (stereo not shown) [3-[3-(1H-Imidazol-1-yl)butyl]-4(3H)-quinazolinone, fumarate salt] was tested. Which “MABP/mm Hg (no. of rats)” value did it give?
A: Its value is 119(2) mm Hg.

Q: `O=c1c2ccccc2nnn1CCCn1ccnc1` [3-[3-(1H-Imidazol-1-yl)propyl]-1,2,3-benzotriazin-4(3H)-one] was tested. Which “MABP/mm Hg (no. of rats)” value did it give?
A: The value was 111(2) mm Hg.

Q: How did the “MABP/mm Hg (no. of rats)” value turn out when `Cc1ccc2c(=O)n(CCCCn3ccnc3)c(=O)[nH]c2c1C` [Example 50, 7,8-Dimethyl-3-[4-(1H-imidazol-1-yl)-butyl]-2,4(1H,3H)-quinazolinedione] was run?
A: The value was 104(2) mm Hg.

Q: For `O=c1c2cc(Cl)ccc2nnn1CCCCn1ccnc1` [Example 88, 6-Chloro-3-[4-(1H-imidazol-1-yl)-butyl]-1,2,3-benzotriazin-4(3H)-one], which “MABP/mm Hg (no. of rats)” value is on record?
A: Its value is 105(2) mm Hg.

Q: With `Cl.Cl.O=c1c2ccccc2ncn1CCCCCn1ccnc1` [Example 137, 3-[5-(1H-Imidazol-1-yl)pentyl]-4(3H)-quinazolinone, dihydrochloride] as the compound, how does the “MABP/mm Hg (no. of rats)” value read?
A: The value was 110(2) mm Hg.

Q: `O=c1c2ccc(Cl)cc2ncn1CCCCn1ccnc1` [Example 149, 7-Chloro-3-(4-(1H-imidazol-1-yl)butyl]-4(3H)-quinazolinone] was tested. Which “MABP/mm Hg (no. of rats)” value did it give?
A: Its value is 126(2) mm Hg.

Q: Which “MABP/mm Hg (no. of rats)” value does the source give for `CCc1nc2ccc(Cl)cc2c(=O)n1CCCn1ccnc1` [Example 158, 6-Chloro-2-ethyl-3-[3-(1H-imidazol-1-yl)propyl]-4(3H)-quinazolinone] here?
A: Its value is 120(4) mm Hg.

Each compound was assayed against T1, thromboxane synthetase (Rattus norvegicus, UniProt P49430) (assay: Inhibition of thromboxane (TX) formation (TXB2 radioimmunoassay) in washed rat platelets). Details: percent inhibition of TXB2 formation; drug at 10^-4M; SHR platelet suspension, 10 minutes at 37 C.
T1 construct: The platelets were isolated by centrifuging the PRP for 10 minutes at 1060xg; from tissue; host or cells: washed blood platelets from Okamoto-Aoki spontaneously hypertensive rats (SHR)
T1 sequence (P49430 1-533): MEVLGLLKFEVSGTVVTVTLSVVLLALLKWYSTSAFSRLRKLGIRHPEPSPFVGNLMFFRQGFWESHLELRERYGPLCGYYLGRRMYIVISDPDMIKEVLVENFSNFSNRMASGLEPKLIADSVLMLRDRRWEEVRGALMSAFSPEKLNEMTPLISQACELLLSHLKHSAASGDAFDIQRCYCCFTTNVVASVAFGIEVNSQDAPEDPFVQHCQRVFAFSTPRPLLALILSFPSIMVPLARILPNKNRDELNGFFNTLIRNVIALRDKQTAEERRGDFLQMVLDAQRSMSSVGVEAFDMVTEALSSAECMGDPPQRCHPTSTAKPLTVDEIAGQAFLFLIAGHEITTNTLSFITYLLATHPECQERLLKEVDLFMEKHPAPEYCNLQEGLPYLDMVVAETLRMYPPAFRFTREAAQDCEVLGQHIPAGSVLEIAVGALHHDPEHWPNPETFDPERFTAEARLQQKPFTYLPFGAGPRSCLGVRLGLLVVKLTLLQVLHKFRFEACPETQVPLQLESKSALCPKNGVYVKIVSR
Type: cell-based, Okamoto-Aoki spontaneously hypertensive rats (SHR)
From the text: The platelet rich plasma (PRP) was separated. […] The inhibition of thromboxane (TX) formation was studied by determing the concentration of thromboxane […] (TXB2), the stable hydrolysis product of TXA2.

Q: For `O=c1c2ccccc2nnn1CCCn1ccnc1` [3-[3-(1H-Imidazol-1-yl)propyl]-1,2,3-benzotriazin-4(3H)-one], which inhibition at 100 µM is on record?
A: Its inhibition at 100 µM is 97%.

Q: `O=c1c2cc(Br)ccc2ncn1CCCCc1cccnc1` [6-Bromo-3-[4-(3-pyridyl)butyl]-4(3H)-quinazolinone] was tested. Which inhibition at 100 µM did it give?
A: The inhibition at 100 µM was 99%.

Q: With `CC(Cn1ccnc1)Cn1nnc2ccc(Cl)cc2c1=O` (stereo not shown) [6-Chloro-3-[3-(1H-imidazol-1-yl)-2-methyl-propyl]-1,2,3-benzotriazin-4(3H)-one, mono-hydrochloride] as the compound, how does the inhibition at 100 µM read?
A: The inhibition at 100 µM was 93%.

Q: With `O=c1c2cc(Cl)ccc2nnn1CCCCn1ccnc1` [6-Chloro-3-[4-(1H-imidazol-1-yl)butyl]-1,2,3-benzotriazin-4(3H)-one, monohydro-chloride] as the compound, how does the inhibition at 100 µM read?
A: The inhibition at 100 µM was 97%.

Q: How did the inhibition at 100 µM turn out when `O=c1[nH]c2ccc([N+](=O)[O-])cc2c(=O)n1CCCn1ccnc1` [Example 15, 3-[3-(1H-Imidazol-1-yl)propyl]-6-nitro-2,4(1H,3H)-quinazolinedione] was run?
A: Its inhibition at 100 µM is 100%.

Q: For `O=c1[nH]c2ccccc2c(=O)n1CCCCc1cccnc1` [Example 22, 3-[4-(3-Pyridinyl)butyl]-2,4(1H,3H)-quinazolinedione], which inhibition at 100 µM is on record?
A: The inhibition at 100 µM was 99%.

Q: For `O=c1[nH]c2ccc(Cl)cc2c(=O)n1CCCn1ccnc1-c1ccccc1` [Example 27, 6-Chloro-3-[3-(2-phenyl-1H-imidazol-1-yl)propyl]-2,4(1H,3H)-quinazolinedione], which inhibition at 100 µM is on record?
A: Its inhibition at 100 µM is 52%.

Q: For `O=c1[nH]c2ccc(Cl)cc2c(=O)n1CCCCc1cccnc1` [Example 29, 6-Chloro-3-[4-(3-pyridinyl)butyl]-2,4(1H,3H)-quinazolinedione], which inhibition at 100 µM is on record?
A: The inhibition at 100 µM was 100%.

Q: How did the inhibition at 100 µM turn out when `O=c1[nH]c2ccc(Cl)cc2c(=O)n1CCCCCn1ccnc1` [Example 32, 6-Chloro-3-[5-(1H-imidazol-1-yl)pentyl]-2,4(1H,3H)-quinazolinedione] was run?
A: The inhibition at 100 µM was 63%.

Q: Which inhibition at 100 µM does the source give for `O=c1[nH]c2ccc(Cl)cc2c(=O)n1CCC(c1ccccc1)n1ccnc1` (stereo not shown) [Example 36, 6-Chloro-3-[3-(1H-imidazol-1-yl)-3-phenylpropyl]-2,4(1H,3H)-quinazolinedione] here?
A: The inhibition at 100 µM was 93%.

Q: How did the inhibition at 100 µM turn out when `CC(Cn1ccnc1)Cn1c(=O)[nH]c2c(Cl)cccc2c1=O` (stereo not shown) [Example 45, 8-Chloro-3-[3-(1H-imidazol-1-yl)-2-methylpropyl]-2,4(1H,3H)-quinazolinedione] was run?
A: The inhibition at 100 µM was 71%.

Q: For `O=c1[nH]c2c(Cl)cc(Cl)cc2c(=O)n1CCCCn1ccnc1` [Example 46, 6,8-Dichloro-3-[4-(1H-imidazol-1-yl)-butyl]-2,4(1H,3H)-quinazolinedione], which inhibition at 100 µM is on record?
A: The inhibition at 100 µM was 89%.

Q: Which inhibition at 100 µM does the source give for `CC(CCn1c(=O)[nH]c2c(Cl)cc(Cl)cc2c1=O)n1ccnc1` (stereo not shown) [Example 47, 6,8-Dichloro-3-[3-(1H-imidazol-1-yl)-butyl]-2,4(1H,3H)-quinazolinedione] here?
A: The inhibition at 100 µM was 67%.

Q: Which inhibition at 100 µM does the source give for `CC(Cn1ccnc1)Cn1c(=O)[nH]c2c(Cl)cc(Cl)cc2c1=O` (stereo not shown) [Example 48, 6,8-Dichloro-3-[3-(1H-imidazol-1-yl)-2-methylpropyl]-2,4(1H,3H)-quinazoline-dione] here?
A: The inhibition at 100 µM was 86%.

Q: For `O=c1[nH]c2ccc(Br)cc2c(=O)n1CCCn1ccnc1` [Example 51, 6-Bromo-3-[3-(1H-imidazol-1-yl)propyl]-2,4(1H,3H)-quinazolinedione], which inhibition at 100 µM is on record?
A: Its inhibition at 100 µM is 100%.

Q: For `CC(Cn1ccnc1)Cn1nnc2ccccc2c1=O` (stereo not shown) [Example 78, 3-[3-(1H-Imidazol-1-yl)-2-methyl-propyl]-1,2,3-benzotriazin-4(3H)-one, monohydrochloride], which inhibition at 100 µM is on record?
A: The inhibition at 100 µM was 92%.

Q: With `O=c1c2ccc(Cl)cc2nnn1CCCCn1ccnc1` [Example 80, 7-Chloro-3-[4-(1H-imidazol-1-yl)-butyl]-1,2,3-benzotriazin-4(3H)-one] as the compound, how does the inhibition at 100 µM read?
A: Its inhibition at 100 µM is 90%.

Q: For `O=c1c2cc(Cl)cc(Cl)c2nnn1CCCCn1ccnc1` [Example 81, 6,8-Dichloro-3-[4-(1H-imidazol-1-yl)butyl]-1,2,3-benzotriazin-4(3H)-one, monohydrochloride], which inhibition at 100 µM is on record?
A: The inhibition at 100 µM was 93%.

Q: Which inhibition at 100 µM does the source give for `CC(Cn1ccnc1)Cn1nnc2ccc(Br)cc2c1=O` (stereo not shown) [Example 83, 6-Bromo-3-[3-(1H-imidazol-1-yl)--2-methylpropyl]-1,2,3-benzo-triazin-4(3H)-one] here?
A: Its inhibition at 100 µM is 99%.

Q: For `Cc1ccc2nnn(CC(C)Cn3ccnc3)c(=O)c2c1` (stereo not shown) [Example 85, 3-[3-(1H-Imidazol-1-yl)-2-methyl-propyl]-6-methyl-1,2,3-benzo-triazin-4(3H)-one, monohydro-chloride], which inhibition at 100 µM is on record?
A: The inhibition at 100 µM was 95%.

Q: How did the inhibition at 100 µM turn out when `O=c1c2ccccc2nnn1CCCCc1cccnc1` [Example 90, 3-[4-(3-Pyridin-yl)butyl]-1,2,3-benzotriazin-4(3H)-one] was run?
A: Its inhibition at 100 µM is 75%.

Q: Which inhibition at 100 µM does the source give for `O=c1c2cc(Cl)ccc2nnn1CCCCCCCCCCn1ccnc1` [Example 91, 6-Chloro-3-[10-(1H-imidazol-1-yl)decyl]-1,2,3-benzotriazin-4(3H)-one, fumarate] here?
A: Its inhibition at 100 µM is 80%.

Q: How did the inhibition at 100 µM turn out when `Cc1cn(CCCn2nnc3ccc(Cl)cc3c2=O)cn1` [Example 92, 6-Chloro-3-[3-(4-methyl-1H-imida-zol-1-yl)propyl]-1,2,3-benzotria-zin-4(3H)-one] was run?
A: Its inhibition at 100 µM is 85%.

Q: Which inhibition at 100 µM does the source give for `O=c1c2cc(Cl)ccc2nnn1CCCCc1cccnc1` [Example 93, 6-Chloro-3-[4-(3-pyridinyl)butyl]-1,2,3-benzotria-zin-4(3H)-one] here?
A: The inhibition at 100 µM was 85%.

Q: Which inhibition at 100 µM does the source give for `O=c1c2cccc(C(F)(F)F)c2nnn1CCCCn1ccnc1` [Example 94, 3-[4-(1H-Imida-zol-1-yl)butyl]-8-trifluoro-methyl-1,2,3-benzotriazin-4(3H)-one] here?
A: The inhibition at 100 µM was 86%.

Q: Which inhibition at 100 µM does the source give for `O=c1c2cccc(C(F)(F)F)c2nnn1CCCCCn1ccnc1` [Example 95, 3-[5-(1H-Imida-zol-1-yl)pentyl]-8-trifluoro-methyl-1,2,3-benzotriazin-4(3H)-one] here?
A: Its inhibition at 100 µM is 87%.

Q: With `Cc1cn(CCCn2cnc3ccccc3c2=O)cn1` [Example 133, 3-[3-(4-Methyl-1H-imidazol-1-yl)propyl]-4(3H)-quinazolinone] as the compound, how does the inhibition at 100 µM read?
A: The inhibition at 100 µM was 74%.

Q: `O=c1c2ccccc2ncn1CCCCc1cccnc1` [Example 135, 3-[4-(3-Pyridyl)butyl]-4(3H)-quina-zolinone, dihydrochloride] was tested. Which inhibition at 100 µM did it give?
A: The inhibition at 100 µM was 99%.

Q: `O=c1c2ccccc2ncn1CCCCCCn1ccnc1` [Example 136, 3-[6-(1H-Imidazol-1-yl)hexyl]-4(3H)-quinazolinone, dihydrochloride] was tested. Which inhibition at 100 µM did it give?
A: Its inhibition at 100 µM is 86%.

Q: `CC(Cn1ccnc1)Cn1cnc2ccc(Cl)cc2c1=O` (stereo not shown) [Example 141, 6-Chloro-3-[3-(1H-imidazol-1-yl)-2-methylpropyl]-4(3H)quinazolinone] was tested. Which inhibition at 100 µM did it give?
A: Its inhibition at 100 µM is 94%.

Q: Which inhibition at 100 µM does the source give for `O=c1c2cc(Cl)ccc2ncn1CCCCc1cccnc1` [Example 142, 6-Chloro-3-[4-(3-pyridyl)butyl]-4(3H)-quinazolinone] here?
A: The inhibition at 100 µM was 100%.

Q: For `O=c1c2cc(Cl)ccc2ncn1CCCn1ccnc1-c1ccccc1` [Example 144, 6-Chloro-3-[3-(2-phenyl-1H-imidazol-1-yl)propyl]-4(3H)-quinazolinone, dihydro-chloride], which inhibition at 100 µM is on record?
A: Its inhibition at 100 µM is 96%.

Q: How did the inhibition at 100 µM turn out when `O=c1c2cc(Cl)ccc2ncn1CCC(c1ccccc1)n1ccnc1` (stereo not shown) [Example 148, 6-Chloro-3-[3-(1H-imidazol-1-yl)-3-phenylpropyl]-4-(3H)-quinazolinone] was run?
A: The inhibition at 100 µM was 79%.
